In patent US20090048229A1, “Methods for promoting wakefulness” (priority 2007, published 2009):

Tests used:
BuChE = BuChE (Homo sapiens, UniProt P06276); experiment: In vitro screening assay, BuChE inhibition; type: biochemical
From the text: An in vitro screening assay with various conjugates was completed according to the methods described in Ellman G L et al., Biochem Pharmacol., 7:88-95 (1961) and in Nadarajah B, J. Anal. Toxicol., 16:192-193 (1992), both of which are herein incorporated by reference in their entireties. The assay method was completed according to the following: […]

[1] = biological target: T1, human recombinant acetylcholinesterase (Homo sapiens, UniProt P22303); experiment: biochemical; conditions: for IC50: 30 min preincubation, 25° C., read-out: Inhibition of AChE IC50; for inhibition at 10 µM: read-out: Inhibition of AChE (%) 10 μM
T1 construct: purchased Sigma Chemical Co (St. Louis, Mo.) C1682
T1 sequence (P22303 32-614): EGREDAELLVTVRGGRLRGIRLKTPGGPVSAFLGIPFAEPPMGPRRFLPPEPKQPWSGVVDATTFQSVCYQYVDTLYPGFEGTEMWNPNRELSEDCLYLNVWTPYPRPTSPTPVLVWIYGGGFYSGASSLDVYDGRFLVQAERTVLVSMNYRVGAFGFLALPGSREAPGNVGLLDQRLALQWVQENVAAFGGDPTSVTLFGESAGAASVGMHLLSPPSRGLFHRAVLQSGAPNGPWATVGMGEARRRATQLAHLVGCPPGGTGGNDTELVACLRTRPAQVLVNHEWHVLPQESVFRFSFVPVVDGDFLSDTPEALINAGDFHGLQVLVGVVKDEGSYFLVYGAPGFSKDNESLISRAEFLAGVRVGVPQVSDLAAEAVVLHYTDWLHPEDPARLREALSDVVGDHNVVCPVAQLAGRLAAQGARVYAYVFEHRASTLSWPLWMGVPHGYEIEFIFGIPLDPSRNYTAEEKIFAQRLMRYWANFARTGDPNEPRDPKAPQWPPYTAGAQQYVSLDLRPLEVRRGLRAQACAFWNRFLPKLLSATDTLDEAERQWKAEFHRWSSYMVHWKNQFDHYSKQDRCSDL
Experimental: All reagents employed in this experiment were of analytical grade. Acetylthiocholine iodide and 5,5′-dithiobis-(2-nitro)benzoic acid (DTNB) and human recombinant acetylcholinesterase (C1682) were purchased from Sigma Chemical Co (St. Louis, Mo.).
The enzyme, compound or stigmine and buffer were preincubated for 30 minutes. At the end of the preincubation period, the substrate acetylthiocholine was added. The final assay mixture contained 10 mM Tris-buffer (pH 8), 0.3 mM Acetylthiocholine and 0.33 mM DTNB and 0.08 U/ml enzyme. At least five (5) different concentrations of the compound or stigmine were assayed per IC50 experiment.
Hydrolysis of acetylthiocholine was monitored indirectly by measurement of the formation of the conjugate between thiocholine and DTNB.

AChE = AChE (Homo sapiens, UniProt P22303); type: biochemical
AChE, sequence (P22303 32-614): as above

[2] = tested on: male CD IGS (Sprague Dawley derived) rats; experiment: Induction of hypothermia after subcutaneous administration; type: in vivo, rat; conditions: for Induction of hypothermia MED (mg/kg s.c.): hypothermia = fall in temperature of >0.5° C.; for fall in body temperature: subcutaneous administration
From the text: Cholinergic agonists cause hypothermia through a central mechanism of action (Freedman et al, 1989. Direct measurement of muscarinic agents in the central nervous system of mice using ex vivo binding. Eur. J. Pharmacol. 174:253-260). […] Since a premise of the present invention is that carbomyl esters would liberate the conjugated amine in the CNS only after inhibition of acetylcholinesterase, induction of hypothermia provides a useful correlation with the acetylcholinesterase inhibition detected in vitro and in vivo.
Hypothermia was defined as a fall in temperature of >0.5° C.
Hypothermia is a marker of CNS penetration for ACHE inhibitors.
If less soluble, the maximum injection volume was 5 mL/kg.
Baseline temperatures were taken just before injection.

butylryl cholinesterase = butylryl cholinesterase (Homo sapiens, UniProt P06276); experiment: Inhibition of butyrylcholinesterase; type: biochemical; conditions: read-out: Inhibition of BuChE (%) 10 μM
butylryl cholinesterase, sequence (P06276 29-602): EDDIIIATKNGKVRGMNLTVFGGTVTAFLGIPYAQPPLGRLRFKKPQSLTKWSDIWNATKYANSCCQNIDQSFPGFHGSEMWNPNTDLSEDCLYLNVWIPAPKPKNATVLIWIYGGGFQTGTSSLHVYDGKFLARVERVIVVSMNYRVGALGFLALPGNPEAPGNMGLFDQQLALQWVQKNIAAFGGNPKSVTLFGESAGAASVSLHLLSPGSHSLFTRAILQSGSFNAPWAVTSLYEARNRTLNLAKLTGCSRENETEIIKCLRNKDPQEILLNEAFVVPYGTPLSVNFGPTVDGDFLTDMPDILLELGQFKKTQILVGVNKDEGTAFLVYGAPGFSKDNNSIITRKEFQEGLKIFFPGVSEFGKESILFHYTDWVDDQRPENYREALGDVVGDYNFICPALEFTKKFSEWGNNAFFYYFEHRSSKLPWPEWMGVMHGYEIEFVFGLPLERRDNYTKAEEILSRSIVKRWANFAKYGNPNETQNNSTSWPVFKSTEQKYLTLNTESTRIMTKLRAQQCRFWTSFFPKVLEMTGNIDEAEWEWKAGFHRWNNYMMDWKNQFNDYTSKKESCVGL
Experimental: The inhibition of butylryl cholinesterase was determined using methods known in the art e.g., Alcala Molel M. et al. (2003) Characterization of the anticholinesterase activity of two new tacrin-huperzine A hybrids. Neuropharmacology, 44 (6), 749-755.

male Wistar rats = experiment: Wake promotion (EEG/EMG sleep-wake, locomotor activity, body temperature); type: in vivo, rat; conditions: for duration of wakefulness: administered 5 hours after lights on (CT-5), FIG. 2; for rebound hypersomnolence: FIG. 3; for effect on body temperature: FIG. 4; for locomotor hyperactivity / stimulant activity: FIG. 5
Experimental: Test compounds in various dose ranges or vehicle were administered to male Wistar rats 5 hours after lights on (CT-5). EEG, EMG, locomotor activity, drink- and food-related activity, and body temperature were concurrently monitored for 30 hr before and after treatment from rats living in separate isolated recording chambers. Sleep-wake discriminations were carried out using SCORE2004™, proprietary real-time hardware and software technology of Hypnion, Inc. (Lexington, Mass.). Comparisons were made between the reference compounds: d-amphetamine, rivastigmine, modafinil, and the following carbamoyl ester test compounds: […]

[3] = tested on: total cholinesterase activity in the brain; experiment: Total cholinesterase activity in brain homogenate after i.p. injection; type: in vivo, rat; conditions: brain 3 hours after injection; for Relative ChE Activity: relative to saline treated rats
Experimental: Animals were decapitated 3 hours after injection and the brains rapidly removed. The brain tissue was diced into small pieces, placed on ice and immediately homogenized with a Polytron PT1200 (Kinematic AG) in 10 ml ice cold Tris with 0.1% Triton-X and protease inhibitors. The protease inhibitors in the extraction buffer were Antipain (10 μM), Aprotinin (5 TIU/mg protein), Bestatin ([…]), Leupeptin (10 μM) and Pepstatin (1 μM). The final dilution of the homogenate in the final assay mixture was 120-fold.
Total cholinesterase activity was determined by a modification of the colorimetric method of Ellmann, et al. (Biochem. Pharmacol., 7:88-95 (1961)), as described above. Hydrolysis of acetylthiocholine was monitored indirectly by measurement of the formation of the conjugate between thiocholine and DTNB. Optical density at 405 nm was recorded during five (5) minutes employing a microplate spectrophotometer (Polarstar, BMG Labtech), and plotted against time. The initial rates were calculated from the slope of the linear portion of the graph.
Cholinesterase activity was normalized for protein content of the homogenate. Relative cholinesterase activity was calculated as the ratio of normalized cholinesterase activity in a rat treated with a control compound or a carbamoyl ester over normalized cholinesterase activity in saline treated rats.

[4] = tested on: rats trained to discriminate methamphetamine from saline; experiment: Two-lever drug discrimination in methamphetamine trained rats; conditions: 0.32-10 mg/kg p.o.

BuChE, sequence (P06276 29-602): as above

Row | SMILES | BuChEI (%) 10 μM (BuChE) [%] | IC50 [1] [µM] | inhibition at 10 µM [1] [%] | AChEI (%) 1 μM (AChE) [%] | AChEI (%) 10 μM (AChE) [%] | Induction of hypothermia MED (mg/kg s.c.) [2] | fall in body temperature [2] | inhibition at 10 µM (butylryl cholinesterase) [%] | other results
1 | C[C@H](Cc1ccccc1)NC(=O)Oc1cccc([C@H](C)N(C)C)c1 [Compound 9, S-riva-l-amphetamine] | 90 | 3.1 | 79 | 35 | 79 | 10 mg/kg s.c. | dose-related-related fall in body temperature | 90 | BuChEI (%) 1 μM (BuChE; 1 μM): 27%; duration of wakefulness (male Wistar rats): dose-related increase in wakefulness; ChE inhibition ([3]; 8 mg/kg i.p.): 41%; Relative ChE Activity ([3]; 8 mg/kg i.p.): 59%
2 | C[C@H](Cc1ccccc1)N(C)C(=O)Oc1cccc([C@H](C)N(C)C)c1 [Compound 7, S-riva-l-methamphetamine] | 17 | 3.2 | 79 | 32 | 79 | ≦1 mg/kg s.c. | dose-related-related fall in body temperature | 17 | stimulus generalization (selection of methamphetamine lever) [4]: did not select the methamphetamine lever; rebound hypersomnolence (male Wistar rats; listed as Compound B): rebound hypersomnolence was not observed; rebound hypersomnolence (male Wistar rats; listed as compound B): lack of hypersomnolence; effect on body temperature (male Wistar rats; listed as Compound B): did not cause an increase in body temperature (hyperthermia), but rather caused an opposite reduction in body temperature; effect on body temperature (male Wistar rats; listed as compound B): absence of hypothermia; locomotor hyperactivity / stimulant activity (male Wistar rats; listed as Compound B): did not cause locomotor hyperactivity; locomotor hyperactivity / stimulant activity (male Wistar rats; listed as compound B): lack of locomotor stimulant activity; duration of wakefulness (male Wistar rats; listed as B): dose-related increase in wakefulness; duration of wakefulness (male Wistar rats; listed as Compound B): unexpectedly long increase in wakefulness that surpassed that seen with the reference compounds tested; ChE inhibition ([3]; 2 mg/kg i.p.): 38%; Relative ChE Activity ([3]; 2 mg/kg i.p.): 62%
